{"source": "paper PMC9611471", "about": "(Pharmaceutics, 2022)", "key": {"SK2": {"molecular_target": "T1, SK2 (Homo sapiens, UniProt Q9NRA0)", "T1 sequence (Q9NRA0 1-654)": "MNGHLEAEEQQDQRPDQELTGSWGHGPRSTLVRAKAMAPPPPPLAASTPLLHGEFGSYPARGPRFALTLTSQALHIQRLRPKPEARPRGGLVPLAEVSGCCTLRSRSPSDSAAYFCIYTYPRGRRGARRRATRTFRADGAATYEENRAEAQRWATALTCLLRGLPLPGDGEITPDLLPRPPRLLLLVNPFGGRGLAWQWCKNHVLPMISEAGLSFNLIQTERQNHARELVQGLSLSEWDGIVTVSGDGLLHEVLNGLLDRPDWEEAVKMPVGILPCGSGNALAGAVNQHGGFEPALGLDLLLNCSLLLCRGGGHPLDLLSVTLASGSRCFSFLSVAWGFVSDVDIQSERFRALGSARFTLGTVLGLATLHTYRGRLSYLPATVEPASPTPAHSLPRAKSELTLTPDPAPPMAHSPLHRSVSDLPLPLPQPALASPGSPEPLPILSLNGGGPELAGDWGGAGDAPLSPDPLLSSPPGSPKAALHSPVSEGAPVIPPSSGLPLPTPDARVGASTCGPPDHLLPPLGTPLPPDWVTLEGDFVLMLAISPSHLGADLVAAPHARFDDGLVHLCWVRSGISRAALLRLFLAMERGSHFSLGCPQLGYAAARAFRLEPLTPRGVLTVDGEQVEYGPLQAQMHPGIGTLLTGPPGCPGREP", "test": "SK2 activity assay (Adapta screening system)", "settings": "read-out: SK2 inhibitory efficacy"}, "A549 cells [1]": {"tested_on": "A549 cells", "test": "Annexin V-FITC apoptosis analysis", "assay_type": "cell-based, human", "settings": "24 h", "procedure": "A549 cells (1 × 10^5 cells) were seeded in into a 12-well plate. […] After harvesting the cells, the binding buffer was added and then incubated with annexin-V-FITC and PI at room temperature for 15 min. The stained cells were analyzed with MACS Quant Analyzer 10 Flow Cytometer (Miltenyi Biotec, Bergisch Gladbach, Germany) within 1 h."}, "[2]": {"tested_on": "A549 cell-induced tumor xenograft", "test": "A549 tumor xenograft in BALB/c nude mice", "assay_type": "in vivo", "settings": "vs control group", "procedure": "Five-week-old BALB/c-nu/nu male mice were purchased from Orient Bio Inc. (Seongnam, Gyeonggi-do, Korea). The mice were housed in a climate-controlled room (22 ± 2 °C, 50 ± 10% relative humidity) and specific pathogen-free conditions with a 12 h light/dark cycle and adapted for a week with free access to food and water. Cages, bedding, and drinking water were autoclaved and changed regularly. The cancer cell suspension {3 × 10^7 cells/ 150 μL phosphate-buffered saline (PBS)} was inoculated subcutaneously into the right flank. Measurable tumors were found 7–8 days after cell inoculation, and tumors grew in 90% of the injection site two weeks later. The mice were randomly divided into test groups (12 mice per group) when the tumor volume reached 100 mm^2 about two weeks after the inoculation (experimental day 0). The control group (vehicle-treated group) and Compound 4 (5 mg/kg) were administered i.p. 3 times a week. The formulation of Compound 4 was prepared in a mixture of 10% DMSO + 90% PBS. The tumor growth rate and body weights in each of the two groups were measured every three days using a Vernier caliper and a digital weighing balance, respectively. Tumor volume was calculated as l × b^2 × 0.52, where l is the length and b is the width. Four weeks after treatment, blood samples were drawn from the orbital sinus under anesthesia, the mice were sacrificed by cervical dislocation, and the tumors were dissected for further examination.\nThe paraffin-embedded tumor specimens were deparaffinized with xylene and a series of different alcohol concentrations, rehydrated, and antigen retrieval was carried out with sodium citrate buffer (0.05 M with PH 6). After blocking with 5% BSA, the slides were incubated overnight at 4 °C with KI67 (Cell Signaling Technology, Danvers, MA, USA), Caspase-3 (Abcam, Cambridge, UK), and S1P antibodies (Echelon Biosciences inc, Salt Lake City, UT). The slides were washed with 1× TBST (TBST with PH 8.4) plus 0.5 percent Triton X-100 (Sigma-Aldrich, St. Louis, MO, USA), then secondary antibodies were added in 1:500 ratios (Invitrogen-Alexa Fluor plus 555, 488, and Alexa FluorTM546), and nuclear staining was performed with Hoechst (Invitrogen, Carlsbad, CA, USA), mounted with a flurosave reagent (EMD Millipore Crop, Billerica, MA, USA). Stain sections were observed and photographed using a confocal microscope (Carl-Zeiss-LSM710NLO and LSM780NLO), and results were analyzed using the Carl-Zeiss ZEN2 software and quantification was done by using the ImageJ software, respectively."}, "A549 cells [3]": {"tested_on": "A549 cells", "test": "Cytotoxicity after SK1/SK2 siRNA transfection", "assay_type": "cell-based, human", "settings": "A549 cells transfected with siSK1, siSK2; 24 h", "procedure": "Control small interfering RNA (siControl) was obtained from Bioneer (Daejeon, Korea), while SK1 (sc-44114) and SK2 (sc-39225) siRNA (siSK1 and siSK2) were purchased from Santa Cruz Biotechnology (Dallas, TX, USA). Cells were transfected using Lipofectamine RNAiMAX Reagent (Invitrogen, Carlsbad, CA, USA) according to the manufacturer’s instructions. Transfection efficiency was monitored by Western blot. After 24 h of infection, cytotoxicity was measured using infected cells."}, "A549 and H1299 cells": {"tested_on": "A549 and H1299 cells", "test": "Cell proliferation / viability assay (EZ-CYTOX)"}, "A549 cells [4]": {"tested_on": "A549 cells", "test": "Western blotting of apoptosis-related proteins", "assay_type": "cell-based, human", "settings": "5 and 10 μM, 24 h", "procedure": "Western blotting measured changes in apoptosis-related proteins (PARP, BAX, BCL-2, Caspase-3). A549 cells (1 × 10^6 cells per well in 6-well plates) were incubated for 24 h. Cells were treated with concentrations of the compounds and incubated for 24 h. Then, cells were dissolved on ice for two hours with a lysis buffer containing a mixture of protease and phosphatase inhibitors. The lysate was centrifuged at 12,000× g for 15 min at 4 °C, and the supernatant was collected. Protein concentrations were measured using a bicinchoninic acid protein assay kit. Total protein was separated by 8–10% sodium dodecyl sulfate–polyacrylamide gel electrophoresis (SDS-PAGE) and transferred onto polyvinylidene fluoride (PVDF) membranes. After being blocked with 5% skim milk, membranes were probed overnight at 4 °C with primary antibodies against SK1, SK2, PARP, BAX, Bcl-2, Caspase-3, and β-actin. Then, the membranes were incubated with subsequent secondary antibodies at room temperature. Then, the protein expressions were measured by Amersham Imager 680 (GE Healthcare, Leiden, WZ, The Netherlands)."}, "[5]": {"test": "In vitro metabolic stability, rat liver microsomes", "assay_type": "in vitro ADME", "settings": "pooled liver microsomes, NADPH, 37 °C, 0 and 30 min"}, "[6]": {"settings": "immunohistochemistry, 5 mg/kg i.p."}}}
{"smiles": "Cc1cc(CN(Cc2cc(C)cc(CS(=O)(=O)c3ccccc3)c2)c2ccc(CCN3CCC(CO)CC3)cc2)cc(CS(=O)(=O)c2ccccc2)c1", "note": "[Compound 4, (1-(4-(Bis(3-methyl-5-((phenylsulfonyl)methyl)benzyl)amino)phenethyl)piperidin-4-yl)methanol]", "values": [{"measurement": "inhibition at 10 µM", "setting": "SK2", "result": 49, "unit": "%"}, {"measurement": "apoptotic effect (annexin-V)", "setting": "A549 cells [1]; 5 μM", "result": "significant effect"}, {"measurement": "apoptotic effect (annexin-V)", "setting": "A549 cells [1]; 10 μM", "result": "significantly higher apoptotic effect compared to PF-543"}, {"measurement": "tumor volume", "setting": "[2]; 5 mg/kg i.p. 3 times a week, 29 days", "result": "statistically significant inhibitory effect on the tumor volume"}, {"measurement": "tumor weight", "setting": "[2]; 5 mg/kg i.p. 3 times a week, day 29", "result": "significant decrease in the tumor weight"}, {"measurement": "weight of animals", "setting": "[2]; 5 mg/kg i.p. 3 times a week", "result": "no difference in the weight"}, {"measurement": "KI67 level in tumor sections (proliferation marker)", "setting": "[2]; [6]", "result": "decrease in the level of KI67"}, {"measurement": "S1P levels in the tumor section", "setting": "[2]; [6]", "result": "decreased"}, {"measurement": "caspase-3 level in tumor sections (apoptosis marker)", "setting": "[2]; [6]", "result": "increased"}, {"measurement": "dependence of cytotoxic efficacy on SK1/SK2 (siRNA knockdown)", "setting": "A549 cells [3]", "result": "more dependent on SK1, although SK2 is also partially involved"}, {"measurement": "cytotoxic effects compared with FTY720", "setting": "A549 and H1299 cells; 20 and 40 μM, A549 and H1299 cells", "result": "cytotoxic effects similar to those of FTY720"}, {"measurement": "IC50", "setting": "A549 and H1299 cells; Homo sapiens, 24 h, read-out: IC50 (cytotoxic effect)", "result": 7.75, "unit": "µM"}, {"measurement": "levels of PARP, Caspase-3 and cleaved PARP", "setting": "A549 cells [4]", "result": "levels of PARP and Caspase-3 were decreased and cleavage of PARP was increased"}, {"measurement": "MS RLM", "setting": "[5]", "result": 22.9}]}
